This experiment relates to HMPV clinical isolate A2 strain TN 94-49. Nature of the experiment: HMPV antiviral assay, Method 1 (LLC-MK2 cells, ATP-Lite). Format: cell-based. To be noted: human metapneumovirus, hMPV A2 TN/94-49, LLC-MK2 cells. The method, then:
In vitro HMPV antiviral activity was evaluated using the clinical isolate A2 strain TN 94-49 (obtained from Dr. John Williams, Vanderbilt University, Tennessee) and LLC-MK2 cells (ATCC #CCL-7), an immortalized kidney epithelial cell line from Macaca mulatta. Compounds were resuspended in dimethyl sulfoxide (DMSO) at 10 mM, serially diluted and added to a 384-well source plate. Subsequently, the compounds were diluted and transferred onto 384-well assay plates using the Echo-650 automated liquid handling system (Beckman Coulter, Indiana). The test compounds were assessed in duplicate at a top concentration of 2 μM followed by 2.5-fold serial dilutions to give a total of 10 concentration points. DMSO control wells were also included on the assay plates and were either infected or not, acting as positive and negative controls. A2 TN 94-49 virus infections were performed in-suspension with LLC-MK2 cells. The cells were washed twice with PBS and removed from the cell-culture flask with 0.25% trypsin-EDTA (Thermo Fisher Scientific, MA). The trypsin-EDTA was inactivated by resuspending in 2% fetal bovine serum (FBS) and OptiMEM (ThermoFisher Scientific, MA) containing 1% penicillin-streptomycin. Cells were pelleted by centrifuging for 5 minutes at 800 rpm, the supernatant was removed, and cells were re-suspended and washed in PBS plus 100 μg/mL CaCl2). This step was performed twice. Cells were then re-suspended in serum-free (SF)-OptiMEM containing 4 μg/mL TPCK-Trypsin (Sigma Aldrich, MO), 1% penicillin-streptomycin (ThermoFisher Scientific, MA) and 100 μg/mL CaCl2). Cells were counted and seeded at a density of 5,000 cells/well, 12.5 μL/well. Virus infections were done at a multiplicity of infection (MOI) of 0.005 with 12.5 μL added per well. Virus infections were performed in infection media which contained SF-OptiMEM, 100 μg/mL CaCl2) and 1% penicillin-streptomycin. HMPV viral stocks are suspended in infection media+5% glycerol, thus an equal volume of infection media+5% glycerol was added to uninfected wells to equalize the final % glycerol across all wells of the assay plate. The final concentration of TPCK-trypsin was 2 μg/mL. The assay plates were incubated at 37° C., 5% CO2 for 7 days. After 7 days incubation, 12.5 μL of ATP-Lite (PerkinElmer, MA) was added to each well and the raw luminescence values were determined using the Envision 2104 (Perkin Elmer, MA). The average of the raw luminescence values for the cells and virus only positive control wells was subtracted from all conditions tested and the percent cell health was determined by dividing these values by the average of the cells only negative control wells. EC50 values were then calculated by non-linear regression using a four-parameter curve logistic equation. The curve fit model employed was XLFit Dose Response One Site Model 200: y=(A+(B/(1+((x/C)^D)))), where A is the minimum y value, B is the maximum y value, C is the log EC50 value, and D is the slope factor.
As to `COc1cc(C(=O)NC[C@](O)(c2cc3c(c(-c4ccc(F)c(CO)c4F)n2)OC[C@]3(C)C(N)=O)C2CC2)cc2cn(C3CC3)nc12` [Example 72], the EC50 was > 500 nM.
The result for `COc1cc(C(=O)NC[C@](O)(c2cc3c(c(-c4cc(Cl)c(F)cc4F)n2)OC[C@]3(C)C(N)=O)C2CC2)cn2cc(C(F)F)nc12` [Example 78] reads > 500 nM.
As for `COc1cc(C(=O)NC[C@@](O)(c2ccccc2)c2cc3c(c(-c4cc(Cl)c(F)cc4F)n2)OC[C@]3(C)C(N)=O)cc2ccc(C)nc12` [Example 79], the EC50 is < 500 nM.
Under `COc1cc(C(=O)NC[C@@](O)(c2ccccc2)c2cc3c(c(-c4cc(Cl)c(F)cc4F)n2)OC[C@]3(C)C(N)=O)cc2cc(C)cnc12` [Example 80] stands < 500 nM; under `C[C@]1(C(N)=O)COc2c1cc([C@@](O)(CNC(=O)c1ccc3nc(C(F)(F)F)oc3c1)c1ccccc1)nc2-c1cc(Cl)c(F)cc1F` [Example 82], > 500 nM; under `COc1cc(C(=O)NC[C@@](O)(c2ccccc2)c2cc3c(c(-c4cc(Cl)c(F)cc4F)n2)OC[C@]3(C)C(N)=O)cc2cc(C(F)(F)F)cnc12` [Example 83], < 500 nM.
In the case of `COc1cc(C(=O)NC[C@@](O)(c2ccccc2)c2cc3c(c(-c4cc(Cl)c(F)cc4F)n2)OC[C@]3(C)C(N)=O)cc2oc(C)nc12` [Example 84], the concentration giving a half-maximal response (EC50) is < 500 nM.
The result for `Cc1nc2ccc(C(=O)NC[C@@](O)(c3ccccc3)c3cc4c(c(-c5cc(Cl)c(F)cc5F)n3)OC[C@]4(C)C(N)=O)cc2o1` [Example 86] reads < 500 nM; that for `[2H]C([2H])([2H])c1nc2ccc(C(=O)NC[C@@](O)(c3ccccc3)c3cc4c(c(-c5cc(Cl)c(F)cc5F)n3)OC[C@]4(C)C(N)=O)cc2o1` [Example 87], < 500 nM.
Under `COc1cc(C(=O)NC[C@@](O)(c2cccc(F)c2)c2cc3c(c(-c4cc(Cl)c(F)cc4F)n2)OC[C@]3(C)C(N)=O)cc2cn(C(F)F)nc12` [Example 134] stands < 500 nM.
The result for `Cc1nc2c(OC(F)F)cc(C(=O)NC[C@@](O)(c3cccc(F)c3)c3cc4c(c(-c5cc(Cl)c(F)cc5F)n3)OC[C@]4(C)C(N)=O)cc2cc1Br` [Example 135] reads > 500 nM.
With `COc1cc(C(=O)NC[C@](O)(c2cc3c(c(-c4cc(Cl)c(F)cc4F)n2)OC[C@]3(C)C(N)=O)c2ccccc2F)cc2cn(C3CC3)nc12` [Example 136], the EC50 was < 500 nM.
Turning to `COc1cc(C(=O)NC[C@](O)(c2cc3c(c(-c4cc(Cl)c(F)cc4F)n2)OC[C@]3(C)C(N)=O)c2ccccc2F)cc2cc(C3CC3)nn12` [Example 137], the EC50 was < 500 nM.
The result for `COc1cc(C(=O)NC[C@](O)(c2cc3c(c(-c4cc(Cl)c(F)cc4F)n2)OC[C@]3(C)C(N)=O)c2ccccc2F)cc2cn(C(F)F)nc12` [Example 138] reads < 500 nM; that for `CNC(=O)[C@@]1(C)COc2c1cc([C@@](O)(CNC(=O)c1cc(OC)c3nn(C4CC4)cc3c1)c1ccccc1)nc2-c1cc(Cl)c(F)cc1F` [Example 141], < 500 nM; that for `CCNC(=O)[C@@]1(C)COc2c1cc([C@@](O)(CNC(=O)c1cc(OC)c3nn(C4CC4)cc3c1)c1ccccc1)nc2-c1cc(Cl)c(F)cc1F` [Example 142], < 500 nM.
Under `COc1cc(C(=O)NC[C@@](O)(c2ccccc2)c2cc3c(c(-c4cc(Cl)c(F)cc4F)n2)OC[C@]3(C)C(=O)NC2CC2)cc2cn(C3CC3)nc12` [Example 143] stands < 500 nM; under `COc1cc(C(=O)NC[C@@](O)(c2ccccc2)c2cc3c(c(-c4cc(C(F)(F)F)ccc4F)n2)OC[C@]3(C)C(N)=O)cc2cn(C(F)F)nc12` [Example 148], < 500 nM.
The result for `COc1cc(C(=O)NC[C@@](O)(c2ccccc2)c2cc3c(c(-c4cc(C(F)(F)F)ccc4F)n2)OC[C@]3(C)C(N)=O)cc2cc(C3CC3)nn12` [Example 149] reads < 500 nM; that for `[2H]C([2H])([2H])c1nc2c(OC)cc(C(=O)NC[C@@](O)(c3ccccc3)c3cc4c(c(-c5cc(Cl)c(F)cc5F)n3)OC[C@]4(C)C(N)=O)cc2s1` [Example 155], < 500 nM.
Consider `COc1cc(C(=O)NC[C@@](O)(c2ccccc2)c2cc3c(c(-c4cc(Cl)c(F)cc4F)n2)OC[C@]3(C)C(N)=O)cc2cn(C(F)F)nc12` [Example 156], for which the EC50 is < 500 nM.
The result for `COc1cc(C(=O)NC[C@@](O)(c2ccccc2)c2cc3c(c(-c4cc(Cl)c(F)cc4F)n2)OC[C@]3(C)C(N)=O)cc2cc(Cl)c(C)nc12` [Example 159] reads < 500 nM; that for `[2H]C([2H])([2H])c1nc2c(OC)cc(C(=O)NC[C@@](O)(c3cccc(OC)c3)c3cc4c(c(-c5cc(Cl)c(F)cc5F)n3)OC[C@]4(C)C(N)=O)cc2s1` [Example 163], < 500 nM; that for `COc1cccc([C@](O)(CNC(=O)c2cc(OC)c3nc(C)c(Cl)cc3c2)c2cc3c(c(-c4cc(Cl)c(F)cc4F)n2)OC[C@]3(C)C(N)=O)c1` [Example 164], < 500 nM.
For `COc1ccc([C@](O)(CNC(=O)c2cc(OC)c3nn(C(F)F)cc3c2)c2cc3c(c(-c4cc(Cl)c(F)cc4F)n2)OC[C@]3(C)C(N)=O)cc1` [Example 167], the EC50 is < 500 nM.
The result for `[2H]C([2H])([2H])c1nc2c(OC)cc(C(=O)NC[C@@](O)(c3ccc(OC)cc3)c3cc4c(c(-c5cc(Cl)c(F)cc5F)n3)OC[C@]4(C)C(N)=O)cc2s1` [Example 168] reads < 500 nM.
Under `[2H]c1c([2H])c([2H])c([C@](O)(CNC(=O)c2cc(OC)c3nn(C4CC4)cc3c2)c2cc3c(c(-c4cc(Cl)c(F)cc4F)n2)OC[C@]3(C)C(N)=O)c([2H])c1[2H]` [Example 169] stands < 500 nM.
The result for `COc1cc(C(=O)NC[C@@](O)(c2ccsc2)c2cc3c(c(-c4cc(Cl)c(F)cc4F)n2)OC[C@]3(C)C(N)=O)cc2cn(C3CC3)nc12` [Example 173] reads < 500 nM.
For the molecule `COc1cc(C(=O)NC[C@@](O)(c2ccsc2)c2cc3c(c(-c4cc(Cl)c(F)cc4F)n2)OC[C@]3(C)C(N)=O)cc2cn(C(F)F)nc12` [Example 174], the concentration for a half-maximal effect (EC50) is < 500 nM.
Regarding `COc1cc(C(=O)NC[C@@](O)(c2ccsc2)c2cc3c(c(-c4cc(Cl)c(F)cc4F)n2)OC[C@]3(C)C(N)=O)cc2cn(C3(F)CC3)nc12` [Example 175], the half-maximal effective concentration (EC50) is < 500 nM.
The result for `[2H]C([2H])([2H])c1nc2c(OC)cc(C(=O)NC[C@@](O)(c3ccsc3)c3cc4c(c(-c5cc(Cl)c(F)cc5F)n3)OC[C@]4(C)C(N)=O)cc2s1` [Example 176] reads < 500 nM; that for `COc1cc(C(=O)NC[C@@](O)(c2ccsc2)c2cc3c(c(-c4cc(F)c(F)cc4F)n2)OC[C@]3(C)C(N)=O)cc2cn(C3CC3)nc12` [Example 177], < 500 nM.
As to `COc1cc(C(=O)NC[C@@](O)(c2ccsc2)c2cc3c(c(-c4cc(F)c(F)cc4F)n2)OC[C@]3(C)C(N)=O)cc2cn(C(F)F)nc12` [Example 178], the EC50 is < 500 nM.
The result for `COc1cc(C(=O)NC[C@](O)(c2cc3c(c(-c4cc(Cl)c(F)cc4F)n2)OC[C@]3(C)C(N)=O)c2cnn[nH]2)cc2cn(C3CC3)nc12` [Example 180] reads > 500 nM.
Under `COc1cc(C(=O)NC[C@@](O)(c2cc3c(c(-c4cc(Cl)c(F)cc4F)n2)OC[C@]3(C)C(N)=O)c2cnn[nH]2)cc2cn(C3CC3)nc12` [Example 181] stands > 500 nM; under `COc1cc(C(=O)NC[C@](O)(c2cc3c(c(-c4cc(F)c(F)cc4F)n2)OC[C@]3(C)C(N)=O)C2(O)CC2)cc2cn(C3CC3)nc12` [Example 215], > 500 nM.

Source of the values: patent US20240368174A1, “Antiviral Heterocyclic Compounds” (Enanta Pharmaceuticals, Inc., priority 2023, published 2024).
